Source: PMC10299677, “Fluorinated Benzofuran and Dihydrobenzofuran as Anti-Inflammatory and Potential Anticancer Agents” (International Journal of Molecular Sciences, 2023)

What was measured:
NOS2 protein expression = NOS2 protein expression in LPS-treated macrophages (Western blot); format: cell-based, C57BL/6J mice; settings: 50 µM, LPS 24 h
Method: Figure 4 Effects of the fluorinated benzofuran and dihydrobenzofuran on COX-2 and NOS2 protein expressions. COX-2 and NOS2 protein expressions were assessed in macrophages incubated with only 10 µM for compounds 1, 7, and 9, and 50 µM for the other compounds, for 30 min prior to the addition of 10 ng/mL LPS for 24 h. β-actin was used as a loading control, and densitometric analysis was performed using ImageJ software (NIH, MA). Data are expressed as fold of LPS-treated macrophages and represented as mean ± SEM of 4 different experiments; * p < 0.05 versus LPS (one-way ANOVA followed by Dunnett’s test).
Macrophages were incubated with the compounds for 30 min prior to the addition of 10 ng/mL LPS for 24 h. Protein levels for COX-2 and NOS2 were detected in LPS-stimulated macrophages. As previously described, 10 µg of total protein was assessed. The primary antibodies were developed and characterized as previously described: for COX-2, mouse monoclonal antibody anti-COX-2 (clone COX-214, 1/5000); for NOS2, rabbit polyclonal antibody anti-NOS2 (dilution1/2000 [33]). Antibodies anti-phospho-NF-κB (3033S), phospho-IκBα (9246S), and total IκBα (4814S) were from Cell Signaling Technologies (Danvers, MA, USA). Total NF-κB C-20 (sc-372) was from Santa Cruz Biotechnologies (Dallas, TX, USA), and mouse β-actin (dilution 1/10,000) (Sigma-Aldrich, A5441). Clarity™ western ECL substrate (Bio-Rad Laboratories 10-5061) was used according to the manufacturer’s instructions to reveal positive bands visualized using Bio-Rad ChemiDoc. For Bcl-2 and cleaved PARP-1, HCT116 cells were plated in 6-well plates (200,000 cells per well) for 24 h, and treated with compounds 1 and 2 at 10, 25, and 50 µM for 72 h. Supernatants and cells were collected and lysed using RIPA lysis buffer containing inhibitors of protease. Western blot of Bcl-2 and cleaved PARP-1 was performed using 25 µg of total protein with a rabbit polyclonal antibody anti-Bcl-2 (1/500) (Santa Cruz Biotechnology, sc-492), rabbit polyclonal antibody anti-PARP-1 (1/1000) (Santa Cruz Biotechnology, sc-7150), and mouse anti-β-actin (dilution 1/10,000) (Sigma-Aldrich, A5441).
Densitometric analyses were performed using ImageJ software (NIH, MA, USA). The ratio of the different analyzed bands to β-actin was determined and data are represented as fold change compared to the LPS-treated cells. Percentage of viable cells for proliferation assay was determined as percentage to control (non-treated cells). For TUNEL assay, apoptotic cells were quantified, and results were expressed as percentage to positive cells (cleaved DNA) compared to control (non-treated cells). Statistical analysis was performed using one-way ANOVA, followed by Dunnett’s multiple comparisons test using GraphPad Prism software. […]

[1] = test system: zymosan-induced air pouch inflammation; experiment: Subcutaneous zymosan-induced air pouch model of inflammation; format: in vivo, C57BL/6J mice; settings: 50 nmol per pouch co-injected with 1% zymosan, 24 h
Method: Figure 5 Effect of fluorinated benzofuran and dihydrobenzofuran on inflammation in the zymosan-treated sterile air pouch model in mice. (A) A timeline for the zymosan-induced inflammation experiments of the air pouch model in C57/BL6 mice. The pouch was formed on day 1 and refilled on day 4 with sterile air. Mice were injected at day 6 with 1% zymosan (w/v in saline), or 0.5 mL of saline for control mice. An amount of 50 nmol of compounds 2, 3, 5, and 6, or vehicle, were co-injected into the air pouch. At 24 h post-treatment, exudates were collected. (B) Recruited cells in the pouch and PGE2 production. (C) Gene expressions of inflammatory enzymes Ptgs2 and Nos2, proinflammatory cytokines Il1α and Il1β, and chemokines Ccl3 and Ccl4. Data correspond to the mean ± SEM (n = 6–8 mice per group); * p < 0.05 compared to the zymosan-treated cells (one-way ANOVA followed by Dunnett’s test).
C57BL/6J female mice (8-week-old, 20–25 g) were kept at 5 per cage on a 12 h light–dark cycle with cotton cocoon as enrichment in temperature- and humidity-controlled rooms. Mice were provided with food and water ad libitum, and food intake and body weight were monitored throughout the study period. Approval for use of animals was obtained from the IACUC (16-11-393). Dorsal air pouches were created in mice as previously described. Six days after the initial injection of sterile air, 0.5 mL of saline containing 100 µM of benzofuran compounds 2, 3, 5, or 6 (50 nmol per pouch) or 0.2% DMSO as vehicle was co-injected in the pouch with 0.5 mL of 0.9% saline (for the control group) or 0.5 mL of 1% zymosan (w/v, for zymosan and zymosan + compound) (Sigma-Aldrich, 400140). At 24 h after treatment, the animals were sacrificed by CO2 inhalation and the air pouch washed, the exudates collected, and the cell number determined. As previously reported, the main subtype of leukocytes present in the air pouch were neutrophils (75%) and monocytes–macrophages (12–15%), as determined by selective flow cytometry. The concentrations of PGE2, CCL2, and IL-6 and the gene expression were assessed as described previously.
For gene expression, RT-PCR was performed as described previously. Briefly, cell pellets obtained by centrifugation of air pouch exudates at 300× g for 5 min at 4 °C were suspended in TriPure (Sigma Aldrich 11667165001). An amount of 2 μg of total RNA was reverse-transcribed using iScript cDNA synthesis kit (Bio-Rad Laboratories, 1708891). RT-PCR was carried out on CFX384 cycler using iTaq Universal SYBR Green Supermix kit (Bio-Rad Laboratories, 1725121) and the primers obtained from TIB Molbiol (Berlin, Germany). Oligonucleotide sequences were according to the references, except for Ptgs2 and Nos2, which were as follows: Ptgs2 (F): […]; Ptgs2 (R): […]; Nos2 (F): […]; Nos2 (R): […]. Gene expression was calculated using ^ΔΔCT method relative to the housekeeping gene 18S.

Compound: O=C(O)/C=C1/Oc2ccc(Br)cc2C1(F)F [Compound 2]
- effect on LPS-dependent NOS2 protein expression (NOS2 protein expression): inhibition
- IL-6 production in air pouch, ELISA [1]: inhibited
- PGE2 levels in air pouch exudates [1]: inhibited
- number of cells of the air pouch exudates [1]: significantly reduced
- gene expression of proinflammatory genes (Il1a, Il1b, Ccl3, Ccl4, Ptgs2, Nos2) in air pouch cells ([1]; RT-PCR): strong inhibition

Compound: O=C(O)/C=C1\Oc2ccc(Br)cc2C1(F)F [Compound 3]
- effect on LPS-dependent NOS2 protein expression (NOS2 protein expression): inhibition
- CCL2 formation in air pouch, ELISA [1]: inhibited
- PGE2 levels in air pouch exudates [1]: inhibited
- number of cells of the air pouch exudates [1]: significantly reduced
- expression of Ccl4 in air pouch cells ([1]; RT-PCR): modestly inhibited

Compound: O=C(O)Cc1oc2ccc(-c3ccccc3)cc2c1F [Compound 5]
- effect on LPS-dependent NOS2 protein expression (NOS2 protein expression): no effect
- CCL2 formation in air pouch, ELISA [1]: inhibited
- number of cells of the air pouch exudates [1]: significantly reduced

Compound: C=C(C)c1ccc2oc(CC(=O)O)c(F)c2c1 [Compound 6]
- effect on LPS-dependent NOS2 protein expression (NOS2 protein expression): no effect
- CCL2 formation in air pouch, ELISA [1]: inhibited
- IL-6 production in air pouch, ELISA [1]: inhibited
- PGE2 levels in air pouch exudates [1]: inhibited
- number of cells of the air pouch exudates [1]: significantly reduced
- expression of Ccl4 in air pouch cells ([1]; RT-PCR): modestly inhibited
